How the values were obtained:
[1] = test system: Streptococcus mutans; assay: Susceptibility to gallium nitrate, MIC/MBC, microdilution broth method; assay type: cell-based, Streptococcus mutans ATCC 25175; settings: Brain Heart Infusion broth, blood agar, 36° C. for 48 hours, 4.1 × 10^6 CFU/ml
Experimental: (§1) Susceptibility of various microorganisms to gallium was tested by determining the minimum inhibitory concentration (MIC) and minimum bactericidal concentration (MBC) for each microorganism using gallium nitrate. In general, MIC is determined by (i) mixing a series of broths, each containing a standard number of microorganisms, with serially diluted solutions of the gallium compound; and (ii) determining the MIC, after incubation, that is the lowest concentration of the gallium compound that has inhibited the growth of the microorganism. The lower the MIC, the more susceptible the organism is. The MBC is determined by subculturing an aliquot of each sample from the MIC test on an appropriate agar plate containing no gallium compound. After incubation, the MBC is determined to be the lowest concentration of the gallium compound at which no growth is observed.
(§2) Specifically, in the present experiment, two grams of gallium nitrate powder were dissolved in 10 ml of filter-sterilized deionized water and the resulting 20% (w/v) (i.e., 200 mg/ml) solution was once again filter-sterilized. […]
(§3) The growth of the microorganisms were determined by visual observation of turbidity in the samples. […]

[2] = test system: Candida albicans; assay: as above; assay type: cell-based, Candida albicans ATCC 10231; settings: 27° C. for 48 hours, 9.75 × 10^5 CFU/ml
Experimental: as §1, §2, §3

[3] = healthy adults, intravenous infusion for at least 7 days; cited from earlier work
[4] = test system: Porphyromonas gingivalis; assay type: cell-based, Porphyromonas gingivalis ATCC 33277
[5] = test system: Methicillin-resistant Staphylococcus aureus (MRSA); assay: Susceptibility to gallium nitrate, MIC/MBC, macrodilution broth method; assay type: cell-based, Staphylococcus aureus ATCC 33592; settings: Muller Hinton broth, tryptic soy agar with 5% sheep blood, 36° C. for 48 hours, 5.2 × 10^5 CFU/ml
[6] = test system: Campylobacter jejuni; assay: Susceptibility to gallium nitrate, MIC/MBC, microdilution broth method; assay type: cell-based, Campylobacter jejuni ATCC 29428; settings: Muller Hinton broth, tryptic soy agar with 5% sheep blood, 36° C. for 48 hours, 4.9 × 10^5 CFU/ml
Experimental: as §1, §2, §3

[7] = test system: Salmonella typhi; assay: Susceptibility to gallium nitrate, MIC/MBC, macrodilution broth method; assay type: cell-based, Salmonella typhi ATCC 6539; settings: Muller Hinton broth, tryptic soy agar with 5% sheep blood, 36° C. for 48 hours, 8.3 × 10^5 CFU/ml
[8] = test system: Escherichia coli O157:H7; assay: Susceptibility to gallium nitrate, MIC/MBC, microdilution broth method; assay type: cell-based, Escherichia coli O157:H7 ATCC 35150; settings: Muller Hinton broth, tryptic soy agar with 5% sheep blood, 36° C. for 48 hours, 1.38 × 10^6 CFU/ml
Experimental: as §1, §2, §3

[9] = test system: Vancomycin-resistant Enterococcus faecalis (VRE); assay: Susceptibility to gallium nitrate, MIC/MBC, macrodilution broth method; assay type: cell-based, Enterococcus faecalis ATCC 51575; settings: Muller Hinton broth, tryptic soy agar with 5% sheep blood, 36° C. for 48 hours, 3.9 × 10^5 CFU/ml
[10] = test system: Pseudomonas aeruginosa; assay: as above; assay type: cell-based, Pseudomonas aeruginosa ATCC 15442; settings: Muller Hinton broth, tryptic soy agar with 5% sheep blood, 36° C. for 48 hours, 7.6 × 10^5 CFU/ml

O=[N+]([O-])[O-].O=[N+]([O-])[O-].O=[N+]([O-])[O-].[Ga+3] [gallium nitrate]
MBC [1]: 5000 µg/mL | MIC ([2]; Sabouraud Dextrose broth): 10000 µg/mL | MBC ([2]; Sabouraud dextrose agar): >100000 µg/mL | tolerated dose [3]: at least 200 mg/m^2/day | MBC [4]: <780 µg/mL | MBC [5]: 12500 µg/mL | MBC [6]: <780 µg/mL | MBC [7]: 6250 µg/mL | MBC [8]: 6250 µg/mL | MBC [9]: 25000 µg/mL | MBC [10]: 6250 µg/mL
